From patent publication US4374841A, “Pyridoxine derivatives, and use in therapeutics” (S. A. Labaz N.V., priority 1980, dated 1983)
Where two headings read alike, the source gives them in different places.

Legend:
Acute toxicity in mice = settings: mouse, in vivo
Description: (§1) Acute toxicity tests were also undertaken in rats and mice with compounds of the invention.

rats = test: Acute toxicity in rats; assay type: in vivo; settings: intragastric route, fumarate form
Description: as §1

Acute toxicity in rats = assay type: in vivo; settings: rat, in vivo
Description: as §1

anaesthetized dog [1] = test: Reserpine-like properties (cardiac frequency and contractility of the myocardium); assay type: in vivo; settings: for change in vivo at 1 mg/kg: Canis lupus familiaris, intravenous, anaesthetized dog
Description: C. Reserpine-like properties
the increase in cardiac frequency
the increase of (dP/dt) at its maximum, i.e. the increase of the maximum of the derivative of the left ventricular pressure in relation to time.
This derivative thus represented an index of contractility.

anaesthetized dog [2] = test: Hypotension in the anaesthetized dog; assay type: in vivo; settings: 2 mg/kg, intravenous
Method: (a) Hypotension in the anaesthetized dog
The hypotensive effect was determined for at least one hour after the intravenous injection of a dose of the compound under study in the dog previously anaesthetized with pentobarbital (30 mg/kg) and atropinized (1 mg/kg).
Arterial pression was registered on a femoral artery.
The results were expressed as follows: […]
++ for a lasting reduction of about 30% in arterial pressure
+ for a short-lived reduction of about 20% in arterial pressure.

mice = test: Central depressant properties (passage of mice through a light ray); assay type: in vivo; settings: Mus musculus, po, 0.5 h, intragastric, 30 minutes after administration, recorded over 15 minutes, dose with depressant action in 50% of the animals, read-out: AD50 (the source's name)
Method: D. Central depressant properties
Thirty minutes after the intragastric administration of a dose of the compound to be studied, batches of mice were placed in a container through which a ray of light was projected. By means of a photoelectric cell, a record was made of the number of animals passing through the light ray over a period of 15 minutes. The same test was performed with control animals.
The AD50 was then calculated i.e. the dose of the compound under study which provoked a depressant action in 50% of the animals.

β-receptors = test: Antiadrenergic properties: anti-β effect (reduction of epinephrine-accelerated heart-rate); assay type: in vivo; settings: 10 mg/kg, intravenous, anaesthetized atropinized dog
Method: (§2) The purpose of this test was to determine the capacity of the compounds under study to reduce epinephrine-increased blood-pressure (anti-α effect) and epinephrine-accelerated heart-rate (anti-β effect) in the dog previously anaesthetized with pentobarbital (30 mg/kg) and atropinized (1 mg/kg).
The percentage of reduction of the epinephrine-induced acceleration of heart-rate obtained by means of the compounds under study in comparison with the tachycardia previously measured (about 70 beats) was then registered.
(§3) In both cases, the results were expressed as follows: […]
(§4) + for a <50%-reduction of the increase in pressure or cardiac frequency
(§5) ++ for a ≥50-reduction of the increase in pressure or cardiac frequency
(§6) +++ for the almost complete supression of the increase in pressure or cardiac frequency.

α-receptors = test: Antiadrenergic properties: anti-α effect (reduction of epinephrine-increased blood-pressure); assay type: in vivo, dog; settings: intravenous
Method: as §2
After that, the dose of epinephrine so determined was administered followed by a dose, by intravenous route, of the compound to be studied. The percentage of reduction of hypertension produced by the compound under study in comparison with the hypertension previously obtained (about 100 mm.Hg) was then registered.
as §3, §4, §5, §6

Okamoto rat = test: Hypotension in the Okamoto rat; assay type: in vivo
Method: (b) Hypotension in the Okamoto rat
In this trial, the rats used belonged to a race specifically bred to produce animals having high blood-pressure. The arterial pressure of these rats was determined (about 180 mm.Hg) at the beginning of the test and a dose of the compound to be studied was then administered.
The decrease in arterial pressure was registered every hour for 6 hours after the administration of the compound in question.

[3] = ip, intraperitoneal route, sesquioxalate form
[4] = po, intragastric route, sesquioxalate form

`Cc1ccccc1OCCNCC(O)COc1c(C)ncc(CO)c1CO` (stereo not shown) [drawing 41, 4,5-Dihydroxymethyl-3-[2-hydroxy-3-(2-methyl-phenoxyethylamino)-propoxy]-2-methyl-pyridine] gave an LD50 (Acute toxicity in mice; intravenous route, sesquioxalate form) of 118 mg/kg, an LD50 (Acute toxicity in mice; [3]) of 290 mg/kg and an LD50 (Acute toxicity in mice; [4]) of 700 mg/kg. For the same compound, the LD0 (rats) was > 2500 mg/kg, the LD50 (Acute toxicity in rats; [3]) was 320 mg/kg and the LD50 (Acute toxicity in rats; iv, fumarate form) was 200 mg/kg. It also gave an LD50 (Acute toxicity in rats; iv, sesquioxalate form) of 170 mg/kg and an LD50 (Acute toxicity in rats; [4]) of 2200 mg/kg.

For `Cc1ccccc1OCCNCC(O)COc1c(C)ncc(CO)c1CO` (stereo not shown) [Compound A, 4,5-dihydroxymethyl-3-[2-hydroxy-3-(2-methyl-phenoxyethylamino)-propoxy]-2-methyl-pyridine], the change in vivo at 1 mg/kg (anaesthetized dog [1]; (dP/dt) maximum, read-out: increase in the contractility of the myocardium) was 10 to 30%, the change in vivo at 1 mg/kg (anaesthetized dog [1]; read-out: increase in cardiac frequency) was 10 to 30% and the “effects on cardiac frequency and contractility after reserpine” value (anaesthetized dog [1]; dog having previously received reserpine) was “suppressed”. The “Decrease in arterial pressure” value (anaesthetized dog [2]) was “++ (for a lasting reduction of about 30% in arterial pressure)”, the ED50 (mice) was 50 mg/kg and the Anti-β effect (β-receptors) was “+ (for a <50%-reduction of the increase in pressure or cardiac frequency)”. For the same compound, the Anti-α effect (α-receptors; 10 mg/kg, anaesthetized atropinized dog, epinephrine) was “+++”, the “α-antiadrenergic properties at a dose as low as” value (α-receptors; lowest active dose, dog, sesquioxalate) was 2 mg/kg and the “maximum decrease (arterial pressure)” value (Okamoto rat; 25 mg/kg, oral route, acute treatment, initial about 180 mm.Hg) was 21 mm.Hg. For the same compound, the minimal effective dose (Okamoto rat; chronic treatment, involving one single administration, read-out: found to be active at a dose as low as) was 50 mg/kg, the “activity in acute treatment (ranking)” value (Okamoto rat; oral route, acute treatment) was “the most active in acute treatment” and the minimal effective dose (Okamoto rat; oral route, acute treatment, read-out: provoked hypotension at a dose as low as) was 25 mg/kg.

In the case of `COc1ccccc1OCCNCC(O)COc1c(C)ncc(CO)c1CO` (stereo not shown) [drawing 42], the LD50 (Acute toxicity in mice; po, intragastric route (salt form not stated)) is reported as > 5000 mg/kg and the LD50 (Acute toxicity in rats; iv, intravenous route (salt form not stated)) is reported as 245 mg/kg.
